According to patent US6576620B2, “Method of identifying partial adenosine A1 receptor agonists” (CV Therapeutics, Inc., priority 1999, dated 2003):

Test system: Adenosine A1 receptor
Assay: A1-agonist stimulated [35S]GTPγS binding to G proteins
Type: biochemical
Settings: normalized to the full agonist CPA
Protocol: At the end of the incubation, each suspension was filtered and the retained radioactivity determined as described above.

[1] = Table 1, compounds of Example 2

SMILES | GTPγS [1] | other results
CCNc1nc2c(N[C@@H]3CCOC3)ncnc2n1[C@@H]1O[C@H](CO)[C@@H](O)[C@H]1O [Compound 5 of Example 3, 2-{6-[((3R)oxolan-3-yl)amino]-8-(ethylamino)purin-9-yl}(4S,2R,3R,5R)-5-(hydroxymethyl)oxolane-3,4-diol] |  | GTPγS (Table 2, compounds of Example 3): 89%
COC(=O)CNC(=O)OC[C@H]1O[C@@H](n2cnc3c(N[C@@H]4CCOC4)ncnc32)[C@H](O)[C@@H]1O [Compound 43 of Example 2, Methyl 2-{[(5-{6-[((3R)oxolan-3-yl)amino]purin-9-yl}(3S, 2R,4R,5R)dihydroxyoxolane-2-yl)methoxy}carbonylamino}acetate] | 53% | 
O[C@@H]1[C@H](O)[C@@H](COC(=S)NCc2ccccc2)O[C@H]1n1cnc2c(N[C@@H]3CCOC3)ncnc21 [Compound 54 of Example 2, 2-{6-[((3R)oxolan-3-yl)amino]purin-9-yl}(4S,2R,3R,5R)-5-({[benzylamino]thioxomethoxy}methyl)oxolane-3,4-diol] | 93% | 
O[C@@H]1[C@H](O)[C@@H](CSC(=S)NC2CCCC2)O[C@H]1n1cnc2c(N[C@@H]3CCOC3)ncnc21 [Compound 75 of Example 2] | 91% | 
O[C@@H]1[C@H](O)[C@@H](COC(=S)N2CCCCC2)O[C@H]1n1cnc2c(N[C@@H]3CCOC3)ncnc21 [Compound 50 of Example 2, 2-{6-[((3R)oxolan-3-yl)amino]purin-9-yl}(4S,2R,3R,5R)-5-[(piperidylthioxomethoxy)methyl]oxolane-3,4-diol] | 88% | 
O[C@@H]1[C@H](O)[C@@H](COC(=S)N[C@H]2CCC[C@@H]2OCc2ccccc2)O[C@H]1n1cnc2c(N[C@@H]3CCOC3)ncnc21 [Compound 56 of Example 2, 2-{6-[((3R)oxolan-3-yl)amino]purin-9-yl}(4S,2R,3R,5R)-5-[({[(1S,2S)-2-(phenylmethoxy)cyclopentyl]amino}thioxomethoxy)methyl]oxolane-3,4-diol] | 52% | 
CC(C)NC(=O)OC[C@H]1O[C@@H](n2cnc3c(N[C@@H]4CCOC4)ncnc32)[C@H](O)[C@@H]1O [Compound 32 of Example 2, {(5-{6-[((3R)oxolan-3-yl)amino]purin-9-yl}(3S,2R,4R,5R)-3,4-dihydroxyoxolan-2-yl)methoxy]-N-(methylethyl)carboxamide] | 91% | 
O[C@@H]1[C@H](O)[C@@H](COC(=S)N[C@H]2CCC[C@@H]2O)O[C@H]1n1cnc2c(N[C@@H]3CCOC3)ncnc21 [Compound 64 of Example 2, 2-{6-[((3R)oxolan-3-yl)amino]purin-9-yl}(4S,2R,3R,5R)-5-({[((1S,2S)-2-hydroxycyclopentyl)amino]thioxomethoxy}methyl)oxolane-3,4-diol] | 99% | 
O=C(N[C@@H]1CCC[C@H]1O)OC[C@H]1O[C@@H](n2cnc3c(N[C@@H]4CCOC4)ncnc32)[C@H](O)[C@@H]1O [Compound 62 of Example 2, {(5-{6[((3R)oxolan-3-yl)amino]purin-9-yl}(3S,2R,4R,5R)-3,4-dihydroxyoxolan-2-yl)methoxy]-N-((1R,2R)-2-hydroxycyclopentyl)carboxamide] | 42% | 
O=C(NC1CCCC1)SC[C@H]1O[C@@H](n2cnc3c(N[C@@H]4CCOC4)ncnc32)[C@H](O)[C@@H]1O [Compound 73 of Example 2, [(5-{6-[((3R)oxolan-3-yl)amino]purin-9-yl}(2S,3S,4R,5R)-3,4-dihydroxyoxolan-2-yl)methythio]-N-cyclopentylcarboxamide] | 109% | 
O=C(NC1CC1c1ccccc1)OC[C@H]1O[C@@H](n2cnc3c(N[C@@H]4CCOC4)ncnc32)[C@H](O)[C@@H]1O (stereo partly shown) [Compound 40 of Example 2] | −6% | 
O=C(N[C@@H]1CCC[C@H]1OCc1ccccc1)OC[C@H]1O[C@@H](n2cnc3c(N[C@@H]4CCOC4)ncnc32)[C@H](O)[C@@H]1O [Compound 37 of Example 2, {(5-{6 [((3R)oxolan-3-yl)amino]purin-9-yl}(3S,2R,4R,5R)-3,4-dihydroxyoxolan-2-yl)methoxy]-N-[(1R,2R)-2-(phenylmethoxy)cyclopentyl]carboxamide] | 30% | 
O[C@@H]1[C@H](O)[C@@H](COC(=S)N[C@@H]2CCC[C@H]2OCc2ccccc2)O[C@H]1n1cnc2c(N[C@@H]3CCOC3)ncnc21 [Compound 57 of Example 2, 2-{6-[((3R)oxolan-3-yl)amino]purin-9-yl}(4S,2R,3R,5R)-5-[(([(1R,2R)-2-(phenylmethoxy)cyclopentyl]amino}thioxomethoxy)methyl]oxolane-3,4-diol] | 67% | 
CNC(=S)SC[C@H]1O[C@@H](n2cnc3c(N[C@@H]4CCOC4)ncnc32)[C@H](O)[C@@H]1O [Compound 74 of Example 2, 2-{6-[((3R)oxolan-3-yl)amino]purin-9-yl}(4S,5S,2R,3R)-5-{[(methylamino)thioxomethylthio]methyl}oxolane-3,4-diol] | 95% | 
O=c1occn1C[C@H]1OC(n2cnc3c(N[C@@H]4CCOC4)ncnc32)[C@H](O)[C@@H]1O (stereo partly drawn) [Compound 80 of Example 2, 3-[(5-{6-[((3R)oxolan-3-yl)amino]purin-9-yl}(3S,2R,4R)-3,4-dihydroxyoxolan-2-yl)methyl]-1,3-oxazolin-2-one] | 80% | 
O=C(O)CCNC(=O)OC[C@H]1O[C@@H](n2cnc3c(N[C@@H]4CCOC4)ncnc32)[C@H](O)[C@@H]1O [Compound 67 of Example 2, 3-{[(5-{6-[((3R)oxolan-3-yl)amino]purin-9-yl}(3S,2R,4R,5R)-3,4 dihydroxyoxolan-2-yl)methoxy]carbonylamino}propanoic acid] | 59% | 
CCOC(=O)[C@H]1C2C=CC(C2)[C@H]1NC(=O)OC[C@H]1O[C@@H](n2cnc3c(N[C@@H]4CCOC4)ncnc32)[C@H](O)[C@@H]1O (stereo partly shown) [Compound 35 of Example 2] | 52% | 
COc1ccccc1SC[C@H]1O[C@@H](n2cnc3c(N[C@@H]4CCOC4)ncnc32)[C@H](O)[C@@H]1O [Compound 17 of Example 4, 2-{6-[((3R)oxolan-3-yl)amino]purin-9-yl}(4S,5S,2R,3R)-5-[(2-Methoxyphenylthio)methyl]oxolane-3,4-diol] |  | GTPγS (Table 3, compounds of Example 4): 52%
CN(C)C(=S)OC[C@H]1O[C@@H](n2cnc3c(N[C@@H]4CCOC4)ncnc32)[C@H](O)[C@@H]1O [Compound 53 of Example 2, 2-{6-[((3R)oxolan-3-yl)amino]purin-9-yl}(4S,2R,3R,5R)-5-{[(dimethylamino)thioxomethoxy]methyl}oxolane-3,4-diol] | 85% | 
COC(=O)C1CCCC1NC(=O)OC[C@H]1O[C@@H](n2cnc3c(N[C@@H]4CCOC4)ncnc32)[C@H](O)[C@@H]1O (stereo partly shown) [Compound 34 of Example 2] | 17% | 
O[C@@H]1[C@H](O)[C@@H](COC(=S)NC2CCCCC2)O[C@H]1n1cnc2c(N[C@@H]3CCOC3)ncnc21 [Compound 55 of Example 2, 2-{6-[((3R)oxolan-3-yl)amino]purin-9-yl}(4S,2R,3R,5R)-5-({[cyclohexylamino]thioxomethoxy}methyl)oxolane-3,4-diol] | 82% | 
O=C(N[C@H]1CCC[C@@H]1OCc1ccccc1)OC[C@H]1O[C@@H](n2cnc3c(N[C@@H]4CCOC4)ncnc32)[C@H](O)[C@@H]1O [Compound 38 of Example 2, {(5-{6[((3R)oxolan-3-yl)amino]purin-9-yl}(3S,2R,4R,5R)-3,4-dihydroxyoxolan-2-yl)methoxy]-N-[(1 S,2S)-2-(phenylmethoxy)cyclopentyl]carboxamide] | 1% | 
